Legend:
Format in all cases: cell-based, Homo sapiens
[1] = test system: Eg5 in RPE1 p53-/- cells; experiment: Immunofluorescence, Eg5 spindle signal intensity, RPE1 p53-/-; settings: Aurora-A inhibitor 30 min (500 nM)
Experimental: (§1) As noted in the figures, the following drugs were incubated with cells for 30 min at 37 °C: Aurora-B-i ZM447439 2 µM [10 mM], PLK1-I BI2536 1 µM [10 mM] and Aurora-A-i MLN8237 [5 mM] was used at 250 and 500 nM in U251 and RPE1 cells, respectively. Drugs were resuspended in DMSO to the stock concentrations indicated in square brackets. BI2536 (HY-50698), MLN8237 (HY-10971) and ZM447439 (HY-10128) were all purchased from MedChemExpress. For western blotting, a 20-min pre-treatment with proteasome inhibitor (20 µM MG-132, MerckMillipore, 47490 [20 mM]) was required prior to the addition of DMSO control or kinase inhibitors. This prevented mitotic exit as a consequence of checkpoint override following Aurora-A and Aurora-B inhibitor addition.
(§2) For siRNA depletion, 1 × 10^5 cells were seeded in six-well plates and transfected as described above for 48 h prior to fixation. For all other experiments, 2.5 × 10^5 cells were seeded in six-well plates and grown for 24 h before fixation. All cells were grown on 12 mm diameter glass coverslips (VWR, 631–1577). […]
(§3) For CEP192, LATS2-pS83, PCNT, PLK1 and γ-tubulin intensity, a 20-pixel diameter circle was centred over each centrosome and the intensity measured. […]

[2] = test system: NuMA in RPE1 p53-/- cells; experiment: Immunofluorescence, NuMA spindle pole signal intensity, RPE1 p53-/-; settings: Aurora-A inhibitor 30 min (500 nM), compared with RΔ11
Experimental: as §1, §2, §3

[3] = test system: TCTP-pS46 in RPE1 p53-/- cells; experiment: Western blot densitometry, TCTP-pS46, RPE1 p53-/-; settings: mitotic RPE1 p53-/- lysates, inhibitor 30 min
Experimental: For measuring monopolar spindle diameter and counting centriolar foci by immunofluorescence, cells were treated with 10 µM STLC for 1 h and 4 h prior to fixation, respectively.
Drugs were resuspended in DMSO to the stock concentrations indicated in square brackets.
Cells were lysed on ice for 30 min in lysis buffer (50 mM tris pH 8.0, 300 mM NaCl, 0.2%(v/v) NP-40, 10%(v/v) glycerol, protease inhibitor cocktail C, phosphatase inhibitor cocktail 3 (Sigma, 1:200 dilution), 100 nM okadaic acid (Enzo, ALX-350-003-C100)). Lysates were then centrifuged at 14,000 × g, 15 min, 4 °C, the supernatants were transferred to a fresh tube, and the pellet was discarded. Protein concentrations were measured by Bradford assay using Protein Assay Dye Reagent Concentrate (Bio-Rad Laboratories, 5000006). NuPage LDS sample buffer, supplemented with NuPAGE sample reducing agent (Invitrogen) were added prior to boiling for 10 min at 90 °C. […] Nitrocellulose was then blocked in 5% milk (wt/v) in TBS, 0.1% Tween (v/v) (TBST) for 1 h. Primary and secondary antibodies were diluted in 5% milk, TBST and incubated overnight at 4 °C or for 1 h at room temperature, respectively. […]
Densitometric quantification of western blots was also performed in ImageJ. Intensity was measured in a rectangular region of interest (ROI) around each band. […] An adjacent region was also measured to account for background intensity.

## COc1cc(Nc2ncc3c(n2)-c2ccc(Cl)cc2C(c2c(F)cccc2OC)=NC3)ccc1C(=O)O [Alisertib]
[1]
  spindle levels of Eg5: decrease in spindle levels of Eg5
[2]
  NuMA levels at spindle poles: equally high in R∆11 and Aurora-A inhibitor-treated cells
[3]
  phosphorylation of TCTP (pS46): decreased

From PMC11574021, “CEP192 localises mitotic Aurora-A activity by priming its interaction with TPX2” (The EMBO Journal, 2024)
